The values below are quoted from earlier work in US8968778B2, “Threo-DOPS controlled release formulation” (Lundbeck NA Ltd., priority 2003, dated 2015).

Take `N[C@H](C(=O)O)[C@H](O)c1ccc(O)c(O)c1` [L-threo-DOPS]: for the setting “after oral administration of L-threo-DOPS”, the “Time that increased plasma levels of both molecules (L-threo-DOPS and NE) remain” value is listed as “at least 12 hours”. Where the note is “after oral ingestion”, the “Time of peak plasma levels of L-threo-DOPS” value was 3 h. Also, for the setting “after oral ingestion of L-threo-DOPS, norepinephrine in plasma”, the “Time of peak NE levels” value was 5 h.

For the compound `N[C@H](C(=O)O)[C@H](O)c1ccc(O)c(O)c1` [threo-DOPS, Threo-3-(3,4-dihydroxyphenyl)serine], the “Specific uptake in microvessel preparations” value with microvessel preparations is “Specific uptake”.
